Laboratory results reported in US20070122395A1, “Genetic and pharmacological regulation of antidepressant-sensitive biogenic amine transporters through PKG/p38 map kinase” (Vanderbilt University, priority 2005, published 2007).

Key:
hSERT [1] = molecular target: T1, hSERT (Homo sapiens, UniProt P31645); assay: [3H]5-HT transport (SERT uptake) assay in transfected HeLa cells; type: cell-based
T1 construct: The full-length cDNA encoding hSERT in the mammalian expression vector pcDNA3.1; expressed in transfected cells; host or cells: HeLa
Description: (§1) Transfection and Transport Studies. HeLa cells, maintained at 37° C. in a 5% CO2 humidified incubator, were grown in complete medium (Dulbecco's Modified Eagle's Medium (DMEM, Invitrogen), 10% fetal bovine serum, 2 mM L-glutamine, 100 units/ml penicillin, and 100 μg/ml streptomycin).
(§2) Transport, Binding, Biotinylation and Phosphorylation Studies. […] To establish levels and biosynthetic progression of hSERT protein produced from mutant cDNAs, HeLa cells were plated in 6-well dishes at 500,000 cells per well and transfected 12 h later. Twenty four hours after transfection, whole cell detergent extracts were blotted for hSERT (mAb Technologies, Inc., 1:1000) using enhanced chemiluminescence (ECL, Amersham) detection.

[2] = system: hSERT variants Leu255Met, Ser293Phe, Pro339Leu, Leu362Met, Ile425Val; assay: 5-HT transport regulation in transfected HeLa cells, responsive variants; type: cell-based, human
Description: as §1, §2

[3] = system: hSERT variants Thr4Ala, Gly56Ala, Glu215Lys, Lys605Asn, Pro621Ser; assay: 5-HT transport regulation in transfected HeLa cells, non-responsive variants; type: cell-based, human
Description: as §1, §2

hSERT [4] = molecular target: T1, hSERT; assay: [125I]RTI-55 binding to intact transfected HeLa cells (surface and total SERT); type: cell-based
[5] = system: hSERT variants that responded with uptake increases; assay: [125I]RTI-55 surface binding to intact transfected HeLa cells, responsive variants; type: cell-based, human
[6] = system: five hSERT variants that failed to elicit uptake increases; assay: [125I]RTI-55 surface binding to intact transfected HeLa cells, non-responsive variants; type: cell-based, human; settings: five non-responsive variants
[7] = system: Ala56 homozygous lymphocyte lines; assay: 5-HT uptake in genotyped lymphocyte lines; type: cell-based, human
Text: (§3) Genotyping and Lymphocyte Studies. Lymphocyte lines were derived from autistic pedigrees recruited by Susan E. Folstein (Johns Hopkins Univ), from the Autism Genetics Resource Exchange (AGRE) collection (www.agre.org/), and from the NIMH Human Genetics Initiative Repository (www.nimhgenetics.org/) at Rutgers University. DNA from lymphoblastoid cell lines was genotyped via TaqMan-based allelic discrimination, using an Applied Biosystems (Foster City, Calif.) Assay-by-Design and independently confirmed by PCR and direct sequence analysis. […] Lymphocyte were pelleted at 1500 rpm, 5 min and washed with KRH assay buffer. A total of 1×10^6 cells in triplicate were pre-warmed (37° C.) in a shaking water bath (10 min) in 12×75 polypropylene tubes in KRH buffer containing 100 μM pargyline and 100 μM ascorbic acid+/−modifiers.

[8] = system: Gly56Ala heterozygous lymphocytes; assay: 5-HT uptake in genotyped lymphocyte lines; type: cell-based, human; settings: Gly56Ala heterozygous cells
Text: as §3

[9] = system: lymphocytes homozygous for the Gly variant (hSERT Gly56); assay: 5-HT uptake in genotyped lymphocyte lines; type: cell-based, human; settings: Gly56 homozygous lymphocytes
Text: as §3

hSERT [10] = assay: in situ SERT phosphorylation in [32P]-prelabeled transfected HeLa cells; type: cell-based, human; settings: 8BrcGMP 100 μM, 60 min
hSERT Gly56Ala = assay: as above; type: cell-based, human
[11] = molecular target: T2, native SERT in RN46A cells (Rattus norvegicus, UniProt P31652); assay: [3H]5-HT transport assay in RN46A cells; type: cell-based; settings: RN46A, 10 min treatment
T2 construct: derived from rat E13 raphenucleus, that expresses native SERT; endogenous in cells; host or cells: RN46A cells

p38 MAPK = type: cell-based, rat
Description: Assays of p38 MAPK Activation. […] Medium was removed by aspiration, and cells were washed once with KRH buffer and then incubated in triplicate at 37° C. in KRH buffer with or without p38 MAPK activators for 5-10 min. Assay buffer was removed, and cells were immediately fixed with fresh 4% formaldehyde (Sigma) in PBS for 20 min at room temperature and washed four times with 1×PBS containing 0.1% Triton X-100 (Sigma) (5 min per wash) prior to 1 h of blocking with Odyssey blocking buffer (Li-Cor Biosciences, Lincoln, Nebr.). RBL-2H3 cells were subsequently probed with dual phosphorylated (Thr(P) and Tyr(P)) p38 MAPK polyclonal antibody (Cell Signaling; 1:400) in Odyssey blocking buffer with gentle mixing for 2 h at room temperature. Cells were then washed four times with 1×PBS containing 0.1% Tween 20 (Sigma) for 5 min. Bound antibody was detected with fluorescence-labeled secondary antibody-Alexa Fluor® 680 (avoiding exposure to light; 1:200 in Odyssey Blocking Buffer, Molecular Probes, Inc., Eugene, Oreg.) for 1 h. After four washes with 1×PBS, 0.1% Tween 20, the plate was scanned, and the captured image of the signal was processed and quantified with the Odyssey™ Infrared Imaging System (Li-Cor Biosciences). For UV radiation to activate p38 MAPK, plates seeded with cells were placed in a UV source (UV Stratalinker 1800, Stratagene, La Jolla, Calif.) that was preset to deliver 4×10^4 μJ/cm^2 at room temperature.

mSERT = assay: monoamine uptake assay in transfected CHO cells; type: cell-based, mouse; settings: 10-min anisomycin
Description: (§4) Cell Culture and Transfection. […] Cells were cultured for 24 h after transfection. The transfection mixture was removed just prior to assay.

human NET = assay: monoamine uptake assay in transfected CHO cells; type: cell-based; settings: CHO cells, 10-min anisomycin
Description: Cell Culture and Transfection. […] CHO cells (ATCC, Manassas, Va.) were maintained at 37° C. in Dulbecco's MEM containing 10% fetal bovine serum, 1% L-Glu, 100 IU/ml penicillin, and 100 μg/ml streptomycin. For comparison of the response of monoamine transporters to p38 MAPK activation, CHO cells were transfected with cDNAs for hSERT, hDAT, or hNET (100 ng/well for a 24-well plate). Transfections of CHO cells were performed using TransIT-LT1 Transfection Reagent (Mirus, Madison, Wis.) according to the manufacturer's protocol (0.3 μl/well). hSERT, hDAT, or hNET cDNAs were preincubated with the reagent at ambient temperature for 30 min before being added to plated CHO cells. Cells were cultured for 24 h after transfection. The transfection mixture was removed just prior to assay.
CHO cells were plated at 20,000 cells/well 16-24 h before transfection, and the uptake assay was performed 24 h following the transfection. […] Medium was removed by aspiration, and cells were washed once with Krebs-Ringer HEPES (KRH) buffer containing 130 mM NaCl, 1.3 mM KCl, 2.2 mM CaCl2, 1.2 mM MgSO4, 1.2 mM KH2PO4, 1.8 g/liter glucose, 10 mM HEPES, pH 7.4. […] Cells were solubilized with 0.5 ml of Microscint 20 (PerkinElmer Life Sciences), and tritium-labeled monoamine accumulation was quantitated using a TopCount plate scintillation counter (PerkinElmer Life Sciences).

hDAT = assay: monoamine uptake assay in transfected CHO cells; type: cell-based, human; settings: 10-min anisomycin
Description: as §4

T1 sequence (P31645 whole entry): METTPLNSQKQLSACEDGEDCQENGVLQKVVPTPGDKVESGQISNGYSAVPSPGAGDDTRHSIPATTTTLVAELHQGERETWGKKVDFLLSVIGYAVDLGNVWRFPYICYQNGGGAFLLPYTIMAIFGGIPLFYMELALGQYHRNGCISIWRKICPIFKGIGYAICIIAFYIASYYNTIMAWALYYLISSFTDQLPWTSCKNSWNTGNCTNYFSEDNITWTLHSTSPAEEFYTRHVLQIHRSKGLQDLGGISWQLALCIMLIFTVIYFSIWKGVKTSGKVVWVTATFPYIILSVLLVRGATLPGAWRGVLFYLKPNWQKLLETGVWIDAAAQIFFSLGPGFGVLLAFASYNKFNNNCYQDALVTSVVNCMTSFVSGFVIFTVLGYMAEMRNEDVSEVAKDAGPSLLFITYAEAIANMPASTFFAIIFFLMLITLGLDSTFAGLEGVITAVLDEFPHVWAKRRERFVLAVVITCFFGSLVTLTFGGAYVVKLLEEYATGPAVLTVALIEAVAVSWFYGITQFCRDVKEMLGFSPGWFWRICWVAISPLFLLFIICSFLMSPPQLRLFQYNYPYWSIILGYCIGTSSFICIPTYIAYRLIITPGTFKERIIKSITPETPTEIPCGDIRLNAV
T2 sequence (P31652 whole entry): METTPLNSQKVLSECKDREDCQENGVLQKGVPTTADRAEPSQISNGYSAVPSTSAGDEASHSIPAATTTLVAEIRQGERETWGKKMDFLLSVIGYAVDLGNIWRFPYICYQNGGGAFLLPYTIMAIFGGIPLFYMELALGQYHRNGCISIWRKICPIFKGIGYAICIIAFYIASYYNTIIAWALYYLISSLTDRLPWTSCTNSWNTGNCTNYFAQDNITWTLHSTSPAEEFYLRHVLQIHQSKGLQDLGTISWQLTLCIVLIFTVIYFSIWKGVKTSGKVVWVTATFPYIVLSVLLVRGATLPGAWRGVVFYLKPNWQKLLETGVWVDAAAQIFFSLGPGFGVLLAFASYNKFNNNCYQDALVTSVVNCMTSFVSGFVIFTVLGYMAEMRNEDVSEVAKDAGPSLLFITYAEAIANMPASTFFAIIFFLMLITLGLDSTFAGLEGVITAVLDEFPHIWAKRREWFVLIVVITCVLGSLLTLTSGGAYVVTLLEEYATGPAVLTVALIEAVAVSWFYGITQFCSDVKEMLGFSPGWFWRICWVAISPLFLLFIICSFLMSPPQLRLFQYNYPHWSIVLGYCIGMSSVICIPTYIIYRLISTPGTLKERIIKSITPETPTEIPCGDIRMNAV

With `Nc1nc2c(nc(Br)n2[C@@H]2O[C@@H]3COP(=O)(O)O[C@H]3[C@H]2O)c(=O)[nH]1` [8BrcGMP, 8-bromo-cGMP] the “stimulation of 5-HT transport activity (peak increase)” value (hSERT [1]) was 50-70%, the “8BrcGMP effect on SERT activity” value [2] was “dose-dependent, H8-sensitive stimulation of SERT activity comparable to hSERT” and the “8BrcGMP effect on SERT activity” value [3] was “completely insensitive”. For the same compound, the “[125I]RTI-55 surface binding after 8BrcGMP” value (shortened to “[125I]RTI-55 surface binding”) (hSERT [4]; 100 μM 8BrcGMP, 5-HT 100 μM as displacer) was “Parallel changes in [^125I]RTI-55 surface binding”, the “total [125I]RTI-55 binding” value (hSERT [4]; paroxetine as displacer, data not shown) was “no effects on total binding” and the “[125I]RTI-55 surface binding” value [5] was “elevated [^125I]RTI-55 surface binding”. The “[125I]RTI-55 surface binding” value [6] was “reduction in [^125I]RTI-55 surface binding”, the “sensitivity of 5-HT uptake to activator” value [7] was “lacked sensitivity” and the “sensitivity of 5-HT uptake to activator” value [8] was “intermediate sensitivity”. For the same compound, the “stimulation of 5-HT transport” value [9] was “robust 8BrcGMP stimulation of 5-HT transport”, the “elevation of basal SERT phosphorylation” value (hSERT [10]) was about 80% and the “SERT phosphorylation response to 8BrcGMP” value (hSERT Gly56Ala) was “could not be further phosphorylated”. The “stimulation of 5-HT transport” value [11] was “increase in 5-HT transport”.
In the case of `COc1ccc(C[C@H]2NC[C@H](O)[C@H]2OC(C)=O)cc1` [anisomycin], the “increase in phosphorylated p38 MAPK” value (p38 MAPK; 0.5 and 1.0 μm, 5 min) was 2-3 fold, the “level of p38 MAPK phosphorylation stimulation” value (p38 MAPK; 5 min treatment) was “comparable to stimulation achieved with 8-bromo-cGMP” and the “total p38 MAPK levels” value (p38 MAPK; data not shown) was “No changes”. For the same compound, the “anisomycin-modulated 5-HT uptake” value (mSERT) was “SB203580-sensitive elevation in 5-HT uptake”, the “anisomycin-modulated NE uptake (NET activity)” value (human NET) was “stimulated to a comparable degree as hSERT” and the “anisomycin-modulated DA uptake” value (hDAT) was “small, but significant SB203580-sensitive inhibition of DA uptake”.
